“And” between values parts separate entries of the source, which are not always exact repeats. Equal entries are not always repeated. Where two headings read alike, the source gives them in different places.
Columns and labels:
[1] = β-glucuronidase treatment of urine; assay type: in vitro ADME, mice; settings: 0-6 h urine, 37 °C, 24 h, 10,000 units
PC-3 xenografts = assay: Efficacy study in mice bearing PC-3 xenografts; assay type: in vivo, C.B.-17 SCID mice; settings: 25 mg/kg/day iv qdx5, PC-3 xenografts
[2] = test system: PC-3 human androgen-independent prostate cancer cells; settings: PC-3 ref 34; cited from earlier work
[3] = Urinary and fecal excretion; settings: for metabolite excreted in urine, % of dose: assuming equivalent UV absorption
[4] = test system: PANC-1 pancreatic cancer cells; assay: MTT assay, in vitro cytotoxicity; assay type: cell-based, human; settings: PANC-1, 72 h
[5] = test system: PC-3 human androgen independent prostate cancer cells; assay: MTT assay, in vitro cytotoxicity; assay type: cell-based; settings: PC-3, 72 h
[6] = test system: CFPAC-1 pancreatic cancer cells; assay: MTT assay, in vitro cytotoxicity; assay type: cell-based, human; settings: CFPAC-1, 72 h
all 3 PKD isoforms = settings: cited from earlier work
[7] = Plasma protein binding, Rapid Equilibrium Dialysis; assay type: in vitro ADME
[8] = Partial mass balance of kb-NB142-70; assay type: in vivo, mouse; settings: 5 min
[9] = assay type: in vivo, C.B.-17 SCID mice
[10] = test system: PANC-1 pancreatic cancer xenograft; settings: po 80 mg/kg qd × 21 ref 31; cited from earlier work
CFPAC-1 xenografts = assay: Efficacy study in mice bearing CFPAC-1 xenografts; assay type: in vivo, C.B.-17 SCID mice
[11] = cited from earlier work
[12] = day 6, 50 mg/kg q3dx3, CFPAC-1 xenografts

## O=C1NCCSc2c1sc1ccc(O)cc21 [kb-NB142-70]
[1]
  increase in parent on incubation of urine with β-glucuronidase: ~ 410%
PC-3 xenografts
  effect on the growth of the tumor xenografts: no effect
  toxicity or changes in body weights: did not result in any toxicity or changes in the body weights
[2]
  EC50: 8 µM
[3]; 0-6 h urine
  urinary excretion of parent, % of dose: 2.5%
  metabolite excreted in urine, % of dose: approximately 7.6%
[3]; 6-24 h urine
  urinary excretion of parent, % of dose: 0.1%
  metabolite excreted in urine, % of dose: ~1.2%
[3]; mouse, in vivo
  fecal excretion, % of dose: 0.67%
[4]
  IC50: 34 ± 7 µM
[5]
  IC50: 21 ± 6 µM
[6]
  IC50: 5.2 ± 0.1 µM
All 3 PKD isoforms
  potency relative to CID755673: ≥ 2 fold
[7]; 0.3 μg/mL
  plasma protein bound: 78%
[7]; 3 μg/mL
  plasma protein bound: 78%
[8]
  administered dose detectable in plasma and collected tissues as parent compound: 12.5%
[8]; parent plus metabolite
  total administered dose detectable in plasma and collected tissues: 13.6 % of the dose
[9]; 25 mg/kg iv
  AUC0→∞ Brain: 85 nmol·min/g
  AUC0→∞ Fat: 1681 nmol·min/g
  AUC0→∞ Heart: 236 nmol·min/g
  AUC0→∞ Kidney: 1712 nmol·min/g
  AUC0→∞ Liver: 266 nmol·min/g
  AUC0→∞ Lung: 377 nmol·min/g
  AUC0→∞ Plasma: 409 nmol·min/mL
  AUC0→∞ RBC: 288 nmol·min/mL
  AUC0→∞ Skeletal Muscle: 748 nmol·min/g
  AUC0→∞ Spleen: 288 nmol·min/g
  AUC0→∞ Tumor: 731 nmol·min/g
  AUC for plasma: 409 nmol·min/mL
  AUC for tumor: 731 nmol·min/mg
  AUC in fat: 1681 nmol·min/g
  clearance: 243 mL/min/kg
  plasma half-life: 6 min
  volume of distribution: approximately 2744 mL/kg
[9]; 25 mg/kg iv, at 5 min
  kidney Cmax: 63 nmol/g
  lung Cmax: 27 nmol/g
[9]; 25 mg/kg iv, observed at 10 min
  PC-3 xenograft (tumor) Cmax: 11.8 nmol/g and 12 nmol/g
[9]; 25 mg/kg iv, brain concentrations lower than plasma
  blood brain barrier crossing: appeared to cross the blood brain barrier
[9]; 5 min after 25 mg/kg iv
  Brain concentration: 6.34 ± 1.72 nmol/g
  Fat concentration: 9.92 ± 0.52 nmol/g
  Heart concentration: 14.5 ± 2.0 nmol/g
  Kidney concentration: 63.4 ± 13.7 nmol/g
  Liver concentration: 23.4 ± 1.1 nmol/g
  Lung concentration: 26.8 ± 3.3 nmol/g
  Plasma concentration: 36.9 ± 8.3 µM
  RBC concentration: 23.6 ± 1.7 nmol/mL
  Skeletal Muscle concentration: 18.4 ± 4.6 nmol/g
  Spleen concentration: 21.2 ± 3.8 nmol/g
  Tumor concentration: 5.62 ± 1.63 nmol/g
[9]; 10 min after 25 mg/kg iv
  Brain concentration: 5.07 ± 0.57 nmol/g
  Fat concentration: 8.93 ± 1.71 nmol/g
  Heart concentration: 13.1 ± 2.5 nmol/g
  Kidney concentration: 48.9 ± 15.8 nmol/g
  Liver concentration: 6.41 ± 0.56 nmol/g
  Lung concentration: 16.7 ± 1.2 nmol/g
  Plasma concentration: 23.4 ± 7.4 µM
  RBC concentration: 13.2 ± 2.7 nmol/mL
  Skeletal Muscle concentration: 15.5 ± 4.0 nmol/g
  Spleen concentration: 12.6 ± 2.5 nmol/g
  Tumor concentration: 11.8 ± 4.0 nmol/g
[9]; 15 min after 25 mg/kg iv
  Brain concentration: 2.40 ± 0.40 nmol/g
  Fat concentration: 6.65 ± 0.74 nmol/g
  Heart concentration: 6.23 ± 1.96 nmol/g
  Kidney concentration: 27.0 ± 12.4 nmol/g
  Liver concentration: 8.41 ± 0.29 nmol/g
  Lung concentration: 10.4 ± 4.9 nmol/g
  Plasma concentration: 10.3 ± 3.7 µM
  RBC concentration: 6.94 ± 2.26 nmol/mL
  Skeletal Muscle concentration: 9.45 ± 2.47 nmol/g
  Spleen concentration: 8.03 ± 3.39 nmol/g
  Tumor concentration: 5.22 ± 3.60 nmol/g
[9]; 30 min after 25 mg/kg iv
  Brain concentration: 0.84 ± 0.11 nmol/g
  Fat concentration: 2.80 ± 0.45 nmol/g
  Heart concentration: 2.60 ± 0.53 nmol/g
  Kidney concentration: 10.1 ± 2.0 nmol/g
  Lung concentration: 2.95 ± 1.69 nmol/g
  Plasma concentration: 2.0 ± 1.9 µM
  RBC concentration: 2.31 ± 1.70 nmol/mL
  Skeletal Muscle concentration: 2.28 ± 0.56 nmol/g
  Tumor concentration: 4.22 ± 1.92 nmol/g
[9]; 60 min after 25 mg/kg iv
  Fat concentration: 2.62 ± 1.35 nmol/g
  Kidney concentration: 2.87 ± 0.56 nmol/g
  Skeletal Muscle concentration: 1.05 ± 0.02 nmol/g
  Tumor concentration: 1.24 ± 0.95 nmol/g
[9]; 120 min after 25 mg/kg iv
  Fat concentration: 0.77 ± 0.13 nmol/g
  Kidney concentration: 3.76 ± 0.82 nmol/g
  Skeletal Muscle concentration: 0.95 ± 0.01 nmol/g
  Tumor concentration: 0.79 ± 0.32 nmol/g
[9]; 240 min after 25 mg/kg iv
  Fat concentration: 0.45 ± 0.06 nmol/g
  Kidney concentration: 1.78 ± 0.29 nmol/g
  Skeletal Muscle concentration: 1.00 ± 0.01 nmol/g
  Tumor concentration: 0.57 ± 0.60 nmol/g
[9]; 360 min after 25 mg/kg iv
  Fat concentration: 0.36 ± 0.03 nmol/g
  Skeletal Muscle concentration: 0.97 ± 0.06 nmol/g
  Tumor concentration: 1.21 ± 0.78 nmol/g
[9]; 960 min after 25 mg/kg iv
  Fat concentration: 0.85 ± 0.42 nmol/g
[9]; 1440 min after 25 mg/kg iv
  Fat concentration: 0.44 ± 0.07 nmol/g
[9]; read-out: Plasma Cmax, 25 mg/kg iv, observed at 5 min
  Cmax: 36.9 µM and 37 µM

## CC[C@@H](N)CNc1ccnc(-c2cc(-c3cnn(C)c3)ccc2O)n1.Cl.Cl [CRT0066101]
[10]
  growth of PANC-1 xenograft: slowed the growth

## Nc1ccn([C@@H]2O[C@H](CO)[C@@H](O)C2(F)F)c(=O)n1 [gemcitabine]
CFPAC-1 xenografts; 50 mg/kg q3dx3, CFPAC-1 xenografts, control 2.2 days
  tumor doubling time: 10.4 days
CFPAC-1 xenografts; [12]
  T/C of mean tumor volume: 22%
  mean tumor volume: 335 mm^3

## COc1ncc2sc3c(c2n1)SCCNC3=O [kmg-NB4-23]
[11]
  aqueous solubility: poor

## O=C1NCCCc2c1oc1ccc(O)cc21 [CID755673, reference compound]
All 3 PKD isoforms; against all 3 PKD isoforms ref 33
  IC50: 0.2 to 0.3 µM
